Patent publication US10239840B2, “Benzoazepine derivatives” (ViiV HEALTHCARE UK LIMITED, priority 2015, dated 2019)
pIC50: −log10 of the molar value.

System: HIV
Experiment: MT4 assay, antiviral HIV activity
Format: cell-based
Conditions: MT-4 cells (HTLV-1 transformed), read-out at 96 hours with cell titer glo
Procedure: Antiviral HIV activity and cytotoxicity values for compounds of the invention from Table 1 were measured in parallel in the HTLV-1 transformed cell line MT-4 based on the method previously described (Hazen et al., 2007, In vitro antiviral activity of the novel, tyrosyl-based human immunodeficiency virus (HIV) type 1 protease inhibitor brecanavir (GW640385) in combination with other antiretrovirals and against a panel of protease inhibitor-resistant HIV (Hazen et al., “In vitro antiviral activity of the novel, tyrosyl-based human immunodeficiency virus (HIV) type 1 protease inhibitor brecanavir (GW640385) in combination with other antiretrovirals and against a panel of protease inhibitor-resistant HIV”, Antimicrob. Agents Chemother. 2007, 51: 3147-3154; and Pauwels et al., “Sensitive and rapid assay on MT-4 cells for the detection of antiviral compounds against the AIDS virus”, J. of Virological Methods 1987, 16: 171-185).
Luciferase activity was measured 96 hours later by adding a cell titer glo (Promega, Madison, Wis.). Percent inhibition of cell protection data was plotted relative to no compound control. Under the same condition, cytotoxicity of the compounds was determined using cell titer Glo™ (Promega, Madison, Wis.). IC50s were determined from a 10 point dose response curve using 3-4-fold serial dilution for each compound, which spans a concentration range >1000 fold.
These values are plotted against the molar compound concentrations using the standard four parameter logistic equation: y=((Vmax*x^n)/(K^n+x^n)+Y2
Y2=minimum γ n=slope factor
Vmax=maximum γ x=compound concentration [M]

| SMILES | pIC50 |
| --- | --- |
| Cc1c(-c2c(C)c3c(c(C)c2[C@H](OC(C)(C)C)C(=O)O)CCN(C(=O)c2cccc(F)c2)CC3)cc(Cl)c2c1CCCO2 (atropisomer, axis not shown; (M)) [Example 1, (S)-2-(tert-butoxy)-2-((M)-8-(8-chloro-5-methylchroman-6-yl)-3-(3-fluorobenzoyl)-6,9-dimethyl-2,3,4,5-tetrahydro-1H-benzo[d]azepin-7-yl)acetic Acid] | 7.57 |
| Cc1c(-c2c(C)c3c(c(C)c2[C@H](OC(C)(C)C)C(=O)O)CCN(C(=O)c2cccc(F)c2)CC3)cc(F)c2c1CCCO2 (atropisomer, axis not shown; (M)) [Example 5, (2S)-2-(tert-butoxy)-2-((M)-8-(8-fluoro-5-methylchroman-6-yl)-3-(3-fluorobenzoyl)-6,9-dimethyl-2,3,4,5-tetrahydro-1H-benzo[d]azepin-7-yl)acetic Acid] | 8.30 |
| Cc1c(-c2c(C)c3c(c(C)c2[C@H](OC(C)(C)C)C(=O)O)CCN(C(=O)CC(C)(C)C)CC3)cc(F)c2c1CCCO2 (atropisomer, axis not shown; (M)) [Example 6, (S)-2-(tert-butoxy)-2-((M)-3-(3,3-dimethylbutanoyl)-8-(8-fluoro-5-methylchroman-6-yl)-6,9-dimethyl-2,3,4,5-tetrahydro-1H-benzo[d]azepin-7-yl)acetic Acid] | 7.22 |
| COc1ccc(F)cc1C(=O)N1CCc2c(C)c(-c3cc(F)c4c(c3C)CCCO4)c([C@H](OC(C)(C)C)C(=O)O)c(C)c2CC1 (atropisomer, axis not shown; (M)) [Example 7, (S)-2-(tert-butoxy)-2-((M)-3-(5-fluoro-2-methoxybenzoyl)-8-(8-fluoro-5-methylchroman-6-yl)-6,9-dimethyl-2,3,4,5-tetrahydro-1H-benzo[d]azepin-7-yl)acetic Acid] | 8.30 |
| COc1ccc(C)cc1C(=O)N1CCc2c(C)c(-c3cc(F)c4c(c3C)CCCO4)c([C@H](OC(C)(C)C)C(=O)O)c(C)c2CC1 (atropisomer, axis not shown; (M)) [Example 8, (S)-2-(tert-butoxy)-2-((M)-8-(8-fluoro-5-methylchroman-6-yl)-3-(2-methoxy-5-methylbenzoyl)-6,9-dimethyl-2,3,4,5-tetrahydro-1H-benzo[d]azepin-7-yl)acetic Acid] | 8.40 |
| COc1ccc(C(=O)N2CCc3c(C)c(-c4cc(F)c5c(c4C)CCCO5)c([C@H](OC(C)(C)C)C(=O)O)c(C)c3CC2)cc1C (atropisomer, axis not shown; (M)) [Example 9, (S)-2-(tert-butoxy)-2-((M)-8-(8-fluoro-5-methylchroman-6-yl)-3-(4-methoxy-3-methylbenzoyl)-6,9-dimethyl-2,3,4,5-tetrahydro-1H-benzo[d]azepin-7-yl)acetic Acid] | 7.85 |
| COc1c(F)cccc1C(=O)N1CCc2c(C)c(-c3cc(F)c4c(c3C)CCCO4)c([C@H](OC(C)(C)C)C(=O)O)c(C)c2CC1 (atropisomer, axis not shown; (M)) [Example 10, (S)-2-(tert-butoxy)-2-((M)-3-(3-fluoro-2-methoxybenzoyl)-8-(8-fluoro-5-methylchroman-6-yl)-6,9-dimethyl-2,3,4,5-tetrahydro-1H-benzo[d]azepin-7-yl)acetic Acid] | 8.30 |
| Cc1c(-c2c(C)c3c(c(C)c2[C@H](OC(C)(C)C)C(=O)O)CCN(C(=O)c2cccc4c2OCC4)CC3)cc(F)c2c1CCCO2 (atropisomer, axis not shown; (M)) [Example 11, (S)-2-(tert-butoxy)-2-((M)-3-(2,3-dihydrobenzofuran-7-carbonyl)-8-(8-fluoro-5-methylchroman-6-yl)-6,9-dimethyl-2,3,4,5-tetrahydro-1H-benzo[d]azepin-7-yl)acetic Acid] | 8.05 |
| Cc1c(-c2c(C)c3c(c(C)c2[C@H](OC(C)(C)C)C(=O)O)CCN(C(=O)C2CCCCC2)CC3)cc(F)c2c1CCCO2 (atropisomer, axis not shown; (M)) [Example 12, (S)-2-(tert-butoxy)-2-((M)-3-(cyclohexanecarbonyl)-8-(8-fluoro-5-methylchroman-6-yl)-6,9-dimethyl-2,3,4,5-tetrahydro-1H-benzo[d]azepin-7-yl)acetic Acid] | 7.72 |
| COc1cc(C(=O)N2CCc3c(C)c(-c4cc(F)c5c(c4C)CCCO5)c([C@H](OC(C)(C)C)C(=O)O)c(C)c3CC2)ccc1F (atropisomer, axis not shown; (M)) [Example 13, (S)-2-(tert-butoxy)-2-((M)-3-(4-fluoro-3-methoxybenzoyl)-8-(8-fluoro-5-methylchroman-6-yl)-6,9-dimethyl-2,3,4,5-tetrahydro-1H-benzo[d]azepin-7-yl)acetic Acid] | 8.40 |
| Cc1c(-c2c(C)c3c(c(C)c2[C@H](OC(C)(C)C)C(=O)O)CCN(C(=O)C(=O)N2CCCCC2)CC3)cc(F)c2c1CCCO2 (atropisomer, axis not shown; (M)) [Example 14, (S)-2-(tert-butoxy)-2-((M)-8-(8-fluoro-5-methylchroman-6-yl)-6,9-dimethyl-3-(2-oxo-2-(piperidin-1-yl)acetyl)-2,3,4,5-tetrahydro-1H-benzo[d]azepin-7-yl)acetic Acid] | 7.77 |
| Cc1c(-c2c(C)c3c(c(C)c2[C@H](OC(C)(C)C)C(=O)O)CCN(Cc2cccc(F)c2)CC3)cc(F)c2c1CCCO2 (atropisomer, axis not shown; (M)) [Example 15, (S)-2-(tert-butoxy)-2-((M)-8-(8-fluoro-5-methylchroman-6-yl)-3-(3-fluorobenzyl)-6,9-dimethyl-2,3,4,5-tetrahydro-1H-benzo[d]azepin-7-yl)acetic Acid] | 7.11 |
| Cc1c(-c2c(C)c3c(c(C)c2[C@H](OC(C)(C)C)C(=O)O)CCN(CCC2CCCCC2)CC3)cc(F)c2c1CCCO2 (atropisomer, axis not shown; (M)) [Example 16, (2S)-2-(tert-butoxy)-2-((M)-3-(2-cyclohexylethyl)-8-(8-fluoro-5-methylchroman-6-yl)-6,9-dimethyl-2,3,4,5-tetrahydro-1H-benzo[d]azepin-7-yl)acetic Acid] | 7.89 |
| Cc1c(-c2c(C)c3c(c(C)c2[C@H](OC(C)(C)C)C(=O)O)CCN(CC2CCCCC2)CC3)cc(F)c2c1CCCO2 (atropisomer, axis not shown; (M)) [Example 17, (S)-2-(tert-butoxy)-2-((M)-3-(cyclohexylmethyl)-8-(8-fluoro-5-methylchroman-6-yl)-6,9-dimethyl-2,3,4,5-tetrahydro-1H-benzo[d]azepin-7-yl)acetic Acid] | 8.00 |
| Cc1c(-c2c(C)c3c(c(C)c2[C@H](OC(C)(C)C)C(=O)O)CCN(C2CCCCC2)CC3)cc(F)c2c1CCCO2 (atropisomer, axis not shown; (M)) [Example 18, (2S)-2-(tert-butoxy)-2-((M)-3-cyclohexyl-8-(8-fluoro-5-methylchroman-6-yl)-6,9-dimethyl-2,3,4,5-tetrahydro-1H-benzo[d]azepin-7-yl)acetic Acid] | 7.89 |
| Cc1c(-c2c(C)c3c(c(C)c2[C@H](OC(C)(C)C)C(=O)O)CCN(c2ccccc2)CC3)cc(F)c2c1CCCO2 (atropisomer, axis not shown; (M)) [Example 19, (2S)-2-(tert-butoxy)-2-((M)-8-(8-fluoro-5-methylchroman-6-yl)-6,9-dimethyl-3-phenyl-2,3,4,5-tetrahydro-1H-benzo[d]azepin-7-yl)acetic Acid] | 7.04 |
